Measured values reported in ChEMBL document CHEMBL3112450, “Synthesis and in vitro antitumor evaluation of primary amine substituted quinazoline linked benzimidazole” (Bioorg Med Chem Lett, 2014).

Legend:
Format in all cases: functional
MDA-MB-435 = test: Cytotoxicity against human MDA-MB-435 cells after 48 hrs by SRB assay; conditions: MDA-MB-435, 48 h
K562 [1] = test: Cytotoxicity against human K562 cells assessed as cell growth at 10^-4 M after 48 hrs by SRB assay; conditions: K562, 48 h, read-out: Activity
HCT-116 = test: Cytotoxicity against human HCT116 cells assessed as cell growth at 10^-7 M after 48 hrs by SRB assay; conditions: HCT-116, 48 h, read-out: Activity
[2] = Cytotoxicity against human OVCAR4 cells assessed as cell growth at 10^-8 M after 48 hrs by SRB assay; conditions: OVCAR-4, 48 h, read-out: Activity
DU-145 = test: Cytotoxicity against human DU145 cells after 48 hrs by SRB assay; conditions: DU-145, 48 h
HCC 2998 [3] = test: Cytotoxicity against human HCC2998 cells after 48 hrs by SRB assay; conditions: HCC 2998, 48 h
COLO 205 [4] = test: Cytotoxicity against human COLO205 cells assessed as cell growth at 10^-6 M after 48 hrs by SRB assay; conditions: COLO 205, 48 h, read-out: Activity
HOP-62 [5] = test: Cytotoxicity against human HOP62 cells assessed as cell growth at 10^-6 M after 48 hrs by SRB assay; conditions: HOP-62, 48 h, read-out: Activity
HCC 2998 [6] = test: Cytotoxicity against human HCC2998 cells assessed as cell growth at 10^-6 M after 48 hrs by SRB assay; conditions: HCC 2998, 48 h, read-out: Activity
SF-295 = test: Cytotoxicity against human SF295 cells after 48 hrs by SRB assay; conditions: SF-295, 48 h
LOX IMVI = test: Cytotoxicity against human LOXIMVI cells assessed as cell growth at 10^-4 M after 48 hrs by SRB assay; conditions: read-out: Activity
NCI-H522 [7] = test: Cytotoxicity against human NCI-H522 cells assessed as cell growth at 10^-8 M after 48 hrs by SRB assay; conditions: NCI-H522, 48 h, read-out: Activity
NCI-H522 [8] = test: Cytotoxicity against human NCI-H522 cells assessed as cell growth at 10^-4 M after 48 hrs by SRB assay; conditions: NCI-H522, 48 h, read-out: Activity
SK-OV-3 [9] = test: Cytotoxicity against human SKOV3 cells assessed as cell growth at 10^-6 M after 48 hrs by SRB assay; conditions: SK-OV-3, 48 h, read-out: Activity
HCC 2998 [10] = test: Cytotoxicity against human HCC2998 cells assessed as cell growth at 10^-7 M after 48 hrs by SRB assay; conditions: HCC 2998, 48 h, read-out: Activity
K562 [11] = test: Cytotoxicity against human K562 cells assessed as cell growth at 10^-7 M after 48 hrs by SRB assay; conditions: K562, 48 h, read-out: Activity
IGROV-1 = test: Cytotoxicity against human IGROV1 cells assessed as cell growth at 10^-6 M after 48 hrs by SRB assay; conditions: IGROV-1, 48 h, read-out: Activity
HT-29 = test: Cytotoxicity against human HT-29 cells after 48 hrs by SRB assay; conditions: HT-29, 48 h
CAKI-1 = test: Cytotoxicity against human Caki1 cells assessed as cell growth at 10^-4 M after 48 hrs by SRB assay; conditions: CAKI-1, 48 h, read-out: Activity
NCI-H322M = test: Cytotoxicity against human NCI-H322M cells assessed as cell growth at 10^-6 M after 48 hrs by SRB assay; conditions: read-out: Activity
[12] = Cytotoxicity against human OVCAR4 cells assessed as cell growth at 10^-4 M after 48 hrs by SRB assay; conditions: OVCAR-4, 48 h, read-out: Activity
Malme-3M = test: Cytotoxicity against human MALME-3M cells assessed as cell growth at 10^-7 M after 48 hrs by SRB assay; conditions: read-out: Activity
SK-MEL-28 = test: Cytotoxicity against human SK-MEL-28 cells assessed as cell growth at 10^-7 M after 48 hrs by SRB assay; conditions: SK-MEL-28, 48 h, read-out: Activity
BT-549 = test: Cytotoxicity against human BT549 cells assessed as cell growth at 10^-8 M after 48 hrs by SRB assay; conditions: BT-549, 48 h, read-out: Activity
T47D [13] = test: Cytotoxicity against human T47D cells assessed as cell growth at 10^-6 M after 48 hrs by SRB assay; conditions: read-out: Activity
KM12 = test: Cytotoxicity against human KM12 cells assessed as cell growth at 10^-4 M after 48 hrs by SRB assay; conditions: KM12, 48 h, read-out: Activity
UACC-62 [14] = test: Cytotoxicity against human UACC62 cells assessed as cell growth at 10^-8 M after 48 hrs by SRB assay; conditions: UACC-62, 48 h, read-out: Activity
[15] = Cytotoxicity against human OVCAR4 cells assessed as cell growth at 10^-7 M after 48 hrs by SRB assay; conditions: OVCAR-4, 48 h, read-out: Activity
HOP-62 [16] = test: Cytotoxicity against human HOP62 cells assessed as cell growth at 10^-8 M after 48 hrs by SRB assay; conditions: HOP-62, 48 h, read-out: Activity
SF-268 = test: Cytotoxicity against human SF268 cells assessed as cell growth at 10^-6 M after 48 hrs by SRB assay; conditions: SF-268, 48 h, read-out: Activity
SK-OV-3 [17] = test: Cytotoxicity against human SKOV3 cells assessed as cell growth at 10^-7 M after 48 hrs by SRB assay; conditions: SK-OV-3, 48 h, read-out: Activity
COLO 205 [18] = test: Cytotoxicity against human COLO205 cells assessed as cell growth at 10^-8 M after 48 hrs by SRB assay; conditions: COLO 205, 48 h, read-out: Activity
SK-MEL-5 = test: Cytotoxicity against human SK-MEL-5 cells assessed as cell growth at 10^-8 M after 48 hrs by SRB assay; conditions: SK-MEL-5, 48 h, read-out: Activity
UACC-62 [19] = test: Cytotoxicity against human UACC62 cells assessed as cell growth at 10^-4 M after 48 hrs by SRB assay; conditions: UACC-62, 48 h, read-out: Activity
T47D [20] = test: Cytotoxicity against human T47D cells assessed as cell growth at 10^-8 M after 48 hrs by SRB assay; conditions: read-out: Activity
M14 = test: Cytotoxicity against human M14 cells assessed as cell growth at 10^-8 M after 48 hrs by SRB assay; conditions: M14, 48 h, read-out: Activity
PC-3 = test: Cytotoxicity against human PC3 cells assessed as cell growth at 10^-4 M after 48 hrs by SRB assay; conditions: PC-3, 48 h, read-out: Activity
HOP-92 = test: Cytotoxicity against human HOP92 cells after 48 hrs by SRB assay; conditions: HOP-92, 48 h
786-0 = test: Cytotoxicity against human 786-0 cells after 48 hrs by SRB assay; conditions: 786-0, 48 h
[21] = Cytotoxicity against human EKVX cells assessed as cell growth at 10^-5 M after 48 hrs by SRB assay; conditions: read-out: Activity

`C=CCn1c(C)nc2cc(Nc3nc(Nc4ccc5nc(C)n(CC=C)c5c4)c4ccccc4n3)ccc21` showed a GI50 (MDA-MB-435) of 0.532 µM, a TGI (MDA-MB-435) of 1.82 µM and a growth at 100 µM (K562 [1]) of 2%. The growth at 0.1 µM (HCT-116) was 102%, the growth at 0.01 µM [2] was 93% and the GI50 (DU-145) was 0.402 µM. For the same molecule, the LC50 (50% lethal concentration) (DU-145) was 3.76 µM, the TGI (DU-145) was 1.41 µM and the GI50 (HCC 2998 [3]) was 1.2 µM. For the same molecule, the LC50 (50% lethal concentration) (HCC 2998 [3]) was 5.03 µM, the TGI (HCC 2998 [3]) was 2.45 µM and the growth at 1 µM (COLO 205 [4]) was -75%. The growth at 1 µM (HOP-62 [5]) was -34%, the growth at 1 µM (HCC 2998 [6]) was 63% and the GI50 (SF-295) was 1.44 µM. The LC50 (SF-295) was 5.24 µM, the TGI (SF-295) was 2.75 µM and the growth at 100 µM (LOX IMVI) was -71%. It also gave a growth at 0.01 µM (NCI-H522 [7]) of 97%, a growth at 100 µM (NCI-H522 [8]) of -24% and a growth at 1 µM (SK-OV-3 [9]) of 97%. It also gave a growth at 0.1 µM (HCC 2998 [10]) of 100%, a growth at 0.1 µM (K562 [11]) of 99% and a growth at 1 µM (IGROV-1) of 82%. It also gave a GI50 (HT-29) of 0.19 µM, an LC50 (concentration killing 50% of cells) (HT-29) of 100 µM and a TGI (HT-29) of 0.349 µM. For the same molecule, the growth at 100 µM (CAKI-1) was -54%, the growth at 1 µM (NCI-H322M) was 43% and the growth at 100 µM [12] was -29%. The growth at 0.1 µM (Malme-3M) was 97%, the growth at 0.1 µM (SK-MEL-28) was 106% and the growth at 0.01 µM (BT-549) was 100%. The growth at 1 µM (T47D [13]) was -4%, the growth at 100 µM (KM12) was -77% and the growth at 0.01 µM (UACC-62 [14]) was 97%. It also gave a growth at 0.1 µM [15] of 102%, a growth at 0.01 µM (HOP-62 [16]) of 98% and a growth at 1 µM (SF-268) of 52%. For the same molecule, the growth at 0.1 µM (SK-OV-3 [17]) was 106%, the growth at 0.01 µM (COLO 205 [18]) was 101% and the growth at 0.01 µM (SK-MEL-5) was 100%. The growth at 100 µM (UACC-62 [19]) was -47%, the growth at 0.01 µM (T47D [20]) was 92% and the growth at 0.01 µM (M14) was 100%. For the same molecule, the growth at 100 µM (PC-3) was -41%, the GI50 (HOP-92) was 0.78 µM and the LC50 (HOP-92) was 4.69 µM. The TGI (HOP-92) was 2.08 µM, the GI50 (786-0) was 0.188 µM and the TGI (786-0) was 0.362 µM.

`C=CCn1c(C)nc2ccc(Nc3nc(Nc4ccc(F)cc4)nc4ccccc34)cc21` showed a GI50 (MDA-MB-435) of 4 µM, an LC50 (concentration killing 50% of cells) (MDA-MB-435) of 92.4 µM and a TGI (MDA-MB-435) of 20.4 µM. The growth at 100 µM (K562 [1]) was -41%, the growth at 0.1 µM (HCT-116) was 97% and the growth at 0.01 µM [2] was 96%. For the same molecule, the GI50 (DU-145) was 8.63 µM, the LC50 (50% lethal concentration) (DU-145) was 54.7 µM and the TGI (DU-145) was 22.8 µM. The GI50 (HCC 2998 [3]) was 8.87 µM, the LC50 (50% lethal concentration) (HCC 2998 [3]) was 58.2 µM and the TGI (HCC 2998 [3]) was 23.5 µM. It also gave a growth at 1 µM (COLO 205 [4]) of 95%, a growth at 1 µM (HOP-62 [5]) of 95% and a growth at 1 µM (HCC 2998 [6]) of 98%. It also gave a GI50 (SF-295) of 6.08 µM, an LC50 (SF-295) of 51 µM and a TGI (SF-295) of 20.3 µM. For the same molecule, the growth at 100 µM (LOX IMVI) was -42%, the growth at 0.01 µM (NCI-H522 [7]) was 89% and the growth at 100 µM (NCI-H522 [8]) was -58%. The growth at 1 µM (SK-OV-3 [9]) was 100%, the growth at 0.1 µM (HCC 2998 [10]) was 97% and the growth at 0.1 µM (K562 [11]) was 103%. For the same molecule, the growth at 1 µM (IGROV-1) was 91%, the GI50 (HT-29) was 3 µM and the LC50 (concentration killing 50% of cells) (HT-29) was greater than 100 µM. For the same molecule, the TGI (HT-29) was 13.3 µM, the growth at 100 µM (CAKI-1) was -53% and the growth at 1 µM (NCI-H322M) was 85%. For the same molecule, the growth at 100 µM [12] was -13%, the growth at 0.1 µM (Malme-3M) was 98% and the growth at 0.1 µM (SK-MEL-28) was 102%. It also gave a growth at 0.01 µM (BT-549) of 88%, a growth at 1 µM (T47D [13]) of 79% and a growth at 100 µM (KM12) of -79%. It also gave a growth at 0.01 µM (UACC-62 [14]) of 99%, a growth at 0.1 µM [15] of 95% and a growth at 0.01 µM (HOP-62 [16]) of 93%. For the same molecule, the growth at 1 µM (SF-268) was 94%, the growth at 0.1 µM (SK-OV-3 [17]) was 112% and the growth at 0.01 µM (COLO 205 [18]) was 97%. It also gave a growth at 0.01 µM (SK-MEL-5) of 92%, a growth at 100 µM (UACC-62 [19]) of -70% and a growth at 0.01 µM (T47D [20]) of 85%. For the same molecule, the growth at 0.01 µM (M14) was 93%, the growth at 100 µM (PC-3) was -79% and the GI50 (HOP-92) was 0.585 µM. For the same molecule, the LC50 (HOP-92) was 36.2 µM, the TGI (HOP-92) was 6.97 µM and the GI50 (786-0) was 7.44 µM. For the same molecule, the TGI (786-0) was 23.8 µM and the CC50 (786-0; read-out: LC50 (the source's name)) was 65.1 µM.

Work on `C=CCn1c(C)nc2cc(Nc3nc(Nc4ccc5nc(C)n(CC=C)c5c4)nc4ccccc34)ccc21` yielded a growth at 10 µM [21] of 97.1%.

With `C=CCn1c(C)nc2ccc(Nc3nc(Sc4ccc(N)cc4)nc4ccccc34)cc21` the growth at 10 µM [21] was 96.5%.
